One assay concerns the target T1, human factor XIa (Homo sapiens, UniProt P03951).
T1 construct: purchased Kordia
The experiment in a line: Measurement of FXIa inhibition (fluorogenic peptide substrate Boc-Glu(OBzl)-Ala-Arg-AMC). The note with it: factor XIa from Kordia, 15 min preincubation, 30 min at 22° C., fluorescence. Format: biochemical. A digest of the protocol: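 Released AMC fluorescence (360/460 nm) read after 30 min at 22 °C. The reaction was started with Boc-Glu(OBzl)-Ala-Arg-AMC (10 μM stock) after a 15 min preincubation of the enzyme (0.45 nM stock) with compound (final 50 μM to 0.00013 μM).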

The target of a further assay is T2, human plasmin (Homo sapiens, UniProt P00747).
T2 construct: purchased Kordia
T2 sequence (P00747 581-810 limits assumed): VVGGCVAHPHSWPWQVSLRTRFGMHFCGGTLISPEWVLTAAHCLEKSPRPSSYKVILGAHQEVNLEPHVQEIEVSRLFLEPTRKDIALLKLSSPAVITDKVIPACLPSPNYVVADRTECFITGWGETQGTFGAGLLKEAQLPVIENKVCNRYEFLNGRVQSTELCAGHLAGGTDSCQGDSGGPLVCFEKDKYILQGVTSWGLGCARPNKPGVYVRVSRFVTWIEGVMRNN
T2 sequence (P00747 97-580 partner limits assumed): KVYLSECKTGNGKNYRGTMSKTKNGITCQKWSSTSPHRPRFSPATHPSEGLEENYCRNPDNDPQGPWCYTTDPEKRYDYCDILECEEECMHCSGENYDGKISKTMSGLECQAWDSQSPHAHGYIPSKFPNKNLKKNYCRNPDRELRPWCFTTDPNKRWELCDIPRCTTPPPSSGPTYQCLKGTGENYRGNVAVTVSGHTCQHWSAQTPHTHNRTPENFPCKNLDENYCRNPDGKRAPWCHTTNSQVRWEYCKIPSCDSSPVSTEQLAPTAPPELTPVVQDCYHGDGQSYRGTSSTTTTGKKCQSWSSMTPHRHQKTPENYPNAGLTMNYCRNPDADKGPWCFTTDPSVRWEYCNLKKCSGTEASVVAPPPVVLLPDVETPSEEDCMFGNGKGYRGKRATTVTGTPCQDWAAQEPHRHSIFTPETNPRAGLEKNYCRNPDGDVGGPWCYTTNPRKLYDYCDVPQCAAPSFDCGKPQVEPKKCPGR
The experiment in a line: Measurement of plasmin inhibition (fluorogenic peptide substrate MeOSuc-Ala-Phe-Lys-AMC). The note with it: plasmin from Kordia, 15 min preincubation, 30 min at 22° C., fluorescence. Format: biochemical. The method, then:
The plasmin inhibition of the inventive substances is determined using a biochemical test system which utilizes the reaction of a peptidic plasmin substrate to determine the enzymatic activity of human plasmin. Here, plasmin cleaves from the peptic plasmin substrate the C-terminal aminomethylcoumarin (AMC), the fluorescence of which is measured. The determinations are carried out in microtitre plates.
Test substances are dissolved in dimethyl sulphoxide and serially diluted in dimethyl sulphoxide (3000 μM to 0.0078 μM; resulting final concentrations in the test: 50 μM to 0.00013 μM). In each case 1 μl of the diluted substance solutions are placed into the wells of white microtitre plates from Greiner (384 wells). Subsequently, the following are added successively: 20 μl of assay buffer (50 mmol/Tris buffer pH 7.4; 100 mmol/l sodium chloride; 5 mmol/calcium chloride; 0.1% bovine serum albumin) and 20 μl of plasmin from Kordia (0.3 μg/ml in assay buffer) are then added successively. After 15 min of incubation, the enzyme reaction is started by addition of 20 μl of the plasmin substrate MeOSuc-Ala-Phe-Lys-AMC dissolved in assay buffer (150 μM in assay buffer) from Bachem, the mixture is incubated at room temperature (22° C.) for 30 min and fluorescence is then measured (excitation: 360 nm, emission: 460 nm). The measured emissions of the test batches with test substance are compared to those of control batches without test substance (only dimethyl sulphoxide instead of test substance in dimethyl sulphoxide), and the IC50 values are calculated from the concentration/activity relationships.

The test system of a further assay is human and animal plasma. Kind of assay: Determination of anticoagulatory activity: activated partial thromboplastin time (aPTT) in plasma. The following applies: concentration of test substance which brings about a 1.5-fold extension of the aPTT; plasma species not given. In short, it runs like this:
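Citrated plasma (1:9, 0.11 M citrate; 4000 g, 15 min) from human or animal blood incubated with test compound and cephalin/kaolin PTT reagent for 3 min at 37° C.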

As usually defined, the IC50 is the point on the concentration scale where inhibition reaches its midpoint. A higher IC50 goes with a need for much substance.

Counter-ions that a name gives are not always drawn.

T1 sequence (P03951 388-625 limits assumed): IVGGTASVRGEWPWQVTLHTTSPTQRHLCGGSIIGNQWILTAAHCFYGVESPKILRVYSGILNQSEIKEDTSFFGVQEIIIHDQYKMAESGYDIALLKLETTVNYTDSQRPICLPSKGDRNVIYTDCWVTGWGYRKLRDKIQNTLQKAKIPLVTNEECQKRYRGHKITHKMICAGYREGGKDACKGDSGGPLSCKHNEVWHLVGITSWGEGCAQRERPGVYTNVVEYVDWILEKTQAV
T1 sequence (P03951 19-387 partner limits assumed): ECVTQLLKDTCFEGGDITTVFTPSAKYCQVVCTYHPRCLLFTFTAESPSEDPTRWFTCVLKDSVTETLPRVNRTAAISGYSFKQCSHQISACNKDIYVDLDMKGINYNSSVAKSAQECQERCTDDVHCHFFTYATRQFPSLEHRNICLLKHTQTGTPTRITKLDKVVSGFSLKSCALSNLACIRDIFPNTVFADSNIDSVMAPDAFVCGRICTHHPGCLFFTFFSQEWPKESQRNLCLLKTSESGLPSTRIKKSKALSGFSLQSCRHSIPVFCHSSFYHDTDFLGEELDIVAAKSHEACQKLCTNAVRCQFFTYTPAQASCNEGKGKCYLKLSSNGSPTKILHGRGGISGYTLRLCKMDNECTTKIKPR

`Cc1cc(C(=O)NC(C)C)ccc1-c1ccc(CC(NC(=O)[C@H]2CC[C@H](CN)CC2)C(=O)Nc2ccc3cn[nH]c3c2)cc1` (mixture of isomers) [Example 21, 4′-[(2R,S)-2-({[trans-4-(Aminomethyl)cyclohexyl]carbonyl}amino)-3-(1H-indazol-6-ylamino)-3-oxopropyl]-N-isopropyl-2-methylbiphenyl-4-carboxamide hydrochloride (enantiomer mixture)]: the IC50 was 1.8 nM at human factor XIa and 1.1 nM at human plasmin.

Regarding `Cc1cc(C(=O)NC2CCCNC2=O)ccc1-c1ccc(C[C@H](NC(=O)[C@H]2CC[C@H](CN)CC2)C(=O)Nc2ccc3cn[nH]c3c2)cc1` (stereo partly drawn) [Example 143, 4′-[(2S)-2-({[trans-4-(Aminomethyl)cyclohexyl]carbonyl}amino)-3-(1H-indazol-6-ylamino)-3-oxopropyl]-2-methyl-N-(2-oxopiperidin-3-yl)biphenyl-4-carboxamide hydrochloride], in the assay with human and animal plasma, the “aPTT” value stood at 0.07 µmol/L. At human factor XIa, this compound showed an IC50 of 2.3 nM.

For the compound `Cc1cc(C(=O)NC2CCC(N(C)C)CC2(C)C)ccc1-c1ccc(C[C@H](NC(=O)[C@H]2CC[C@H](CN)CC2)C(=O)Nc2ccc(-c3nnn[nH]3)cc2)cc1` (stereo partly drawn) [Example 144, 4′-[(2S)-2-({[trans-4-(Aminomethyl)cyclohexyl]carbonyl}amino)-3-oxo-3-{[4-(1H-tetrazol-5-yl)phenyl]amino}propyl]-N-[4-(dimethylamino)-2,2-dimethylcyclohexyl]-2-methylbiphenyl-4-carboxamide hydrochloride], the “aPTT” value with human and animal plasma is 0.06 µmol/L. At human factor XIa, this compound registered an IC50 of 1.8 nM.

With `Cc1cc(C(=O)N[C@@H]2CCNC2=O)ccc1-c1ccc(C[C@H](NC(=O)[C@H]2CC[C@H](CN)CC2)C(=O)Nc2ccc3cn[nH]c3c2)cc1` [Example 145, 4′-[(2S)-2-({[trans-4-(Aminomethyl)cyclohexyl]carbonyl}amino)-3-(1H-indazol-6-ylamino)-3-oxopropyl]-2-methyl-N-[(3R)-2-oxopyrrolidin-3-yl]biphenyl-4-carboxamide hydrochloride], in the assay with human and animal plasma, the “aPTT” value was determined as 0.07 µmol/L. This compound showed an IC50 at human factor XIa of 3.2 nM.

With `Cc1cc(C(=O)NC2CCC(N(C)Cc3ccccc3)CC2)ccc1-c1ccc(C[C@H](NC(=O)[C@H]2CC[C@H](CN)CC2)C(=O)Nc2ccc(-c3nnn[nH]3)cc2)cc1` (stereo partly drawn) [Example 146, 4′-[(2S)-2-({[trans-4-(Aminomethyl)cyclohexyl]carbonyl}amino)-3-oxo-3-{[4-(1H-tetrazol-5-yl)phenyl]amino}propyl]-N-{4-[benzyl(methyl)amino]cyclohexyl}-2-methylbiphenyl-4-carboxamide hydrochloride], in the assay with human and animal plasma, the “aPTT” value amounted to 0.07 µmol/L. This compound displayed an IC50 at human factor XIa of 1.8 nM.

Take `CNC1CCC(NC(=O)c2ccc(-c3ccc(C[C@H](NC(=O)[C@H]4CC[C@H](CN)CC4)C(=O)Nc4ccc(-c5nnn[nH]5)cc4)cc3)c(C)c2)CC1` (stereo partly drawn) [Example 147, 4′-[(2S)-2-({[trans-4-(Aminomethyl)cyclohexyl]carbonyl}amino)-3-oxo-3-{[4-(1H-tetrazol-5-yl)phenyl]amino}propyl]-2-methyl-N-[4-(methylamino)cyclohexyl]biphenyl-4-carboxamide hydrochloride]: the “aPTT” value in the assay on human and animal plasma came to 0.01 µmol/L. Besides, on human factor XIa, half-maximal inhibition (IC50) required 1.7 nM.

On to `Cc1cc(C(=O)NC2CCC(N(C)C)CC2)ccc1-c1ccc(C[C@H](NC(=O)[C@H]2CC[C@H](CN)CC2)C(=O)Nc2ccc(-c3nnc(C(F)(F)C(F)(F)C(F)(F)C(=O)O)[nH]3)cc2)cc1` (stereo partly drawn) [Example 148, 4-[5-(4-{[(2S)-2-({[trans-4-(Aminomethyl)cyclohexyl]carbonyl}amino)-3-(4′-{[4-(dimethylamino)cyclohexyl]carbamoyl}-2′-methylbiphenyl-4-yl)propanoyl]amino}phenyl)-4H-1,2,4-triazol-3-yl]-2,2,3,3,4,4-hexafluorobutanoic acid hydrochloride], for which the “aPTT” value with human and animal plasma was determined as 0.07 µmol/L. This compound displayed an IC50 at human factor XIa of 1 nM.

`Cc1cc(C(=O)NC2CCNCC2(C)C)ccc1-c1ccc(C[C@H](NC(=O)[C@H]2CC[C@H](CN)CC2)C(=O)Nc2ccc(-c3nnn[nH]3)cc2)cc1` (stereo partly drawn) [Example 149, 4′-[(2S)-2-({[trans-4-(Aminomethyl)cyclohexyl]carbonyl}amino)-3-oxo-3-{[4-(1H-tetrazol-5-yl)phenyl]amino}propyl]-N-(3,3-dimethylpiperidin-4-yl)-2-methylbiphenyl-4-carboxamide hydrochloride]: the “aPTT” value with human and animal plasma worked out at 0.04 µmol/L. Moreover, half-maximal inhibition on human factor XIa (IC50) was put at 1.8 nM.

For the compound `CCN(C)C1CCC(NC(=O)c2ccc(-c3ccc(C[C@H](NC(=O)[C@H]4CC[C@H](CN)CC4)C(=O)Nc4ccc(-c5nnn[nH]5)cc4)cc3)c(C)c2)CC1` (stereo partly drawn) [Example 150, 4′-[(2S)-2-({[trans-4-(Aminomethyl)cyclohexyl]carbonyl}amino)-3-oxo-3-{[4-(1H-tetrazol-5-yl)phenyl]amino}propyl]-N-{4-[ethyl(methyl)amino]cyclohexyl}-2-methylbiphenyl-4-carboxamide hydrochloride], the “aPTT” value in the assay on human and animal plasma amounted to 0.07 µmol/L. It took 2.5 nM to reach half-maximal inhibition on human factor XIa (IC50).

Turning to `COC(=O)C1CCC(NC(=O)c2ccc(-c3ccc(C[C@H](NC(=O)[C@H]4CC[C@H](CN)CC4)C(=O)Nc4ccc(-c5nnn[nH]5)cc4)cc3)c(C)c2)C(=O)N1` (stereo partly drawn) [Example 151, Methyl 5-[({4′-[(2S)-2-({[trans-4-(aminomethyl)cyclohexyl]carbonyl}amino)-3-oxo-3-{[4-(1H-tetrazol-5-yl)phenyl]amino}propyl]-2-methylbiphenyl-4-yl}carbonyl)amino]-6-oxopiperidine-2-carboxylate hydrochloride], the “aPTT” value in the assay with human and animal plasma worked out at 0.1 µmol/L. Further, the IC50 against human factor XIa was 0.97 nM.

With `Cc1cc(C(=O)NC2CCNCC2)ccc1-c1ccc(C[C@H](NC(=O)[C@H]2CC[C@H](CN)CC2)C(=O)Nc2ccc(-c3nnc(CCC(=O)O)[nH]3)cc2)cc1` [Example 152, 3-{(5-[4-({(2S)-2-({[trans-4-(Aminomethyl)cyclohexyl]carbonyl}amino)-3-[2′-methyl-4′-(piperidin-4-ylcarbamoyl)biphenyl-4-yl]propanoyl}amino)phenyl]-4H-1,2,4-triazol-3-yl}propanoic acid hydrochloride], the “aPTT” value with human and animal plasma was determined as 0.7 µmol/L. The same compound showed an IC50 against human factor XIa of 5.3 nM.

Turning to `Cc1cc(C(=O)N[C@H]2CCNC2)ccc1-c1ccc(C[C@H](NC(=O)[C@H]2CC[C@H](CN)CC2)C(=O)Nc2ccc(-c3nnc(C(F)(F)C(F)(F)C(=O)O)[nH]3)cc2)cc1` [Example 153, 3-[5-(4-{[(2S)-2-({[trans-4-(Aminomethyl)cyclohexyl]carbonyl}amino)-3-{2′-methyl-4′-[(3S)-pyrrolidin-3-ylcarbamoyl]biphenyl-4-yl}propanoyl]amino}phenyl)-4H-1,2,4-triazol-3-yl]-2,2,3,3-tetrafluoropropanoic acid hydrochloride], in the assay on human and animal plasma, the “aPTT” value was 0.08 µmol/L. On human factor XIa, this compound had an IC50 of 1.8 nM.

On to `Cc1cc(C(=O)NC2C3CNCC32)ccc1-c1ccc(C[C@H](NC(=O)[C@H]2CC[C@H](CN)CC2)C(=O)Nc2ccc(-c3nnc(C(F)(F)C(F)(F)C(=O)O)[nH]3)cc2)cc1` (stereo partly drawn) [Example 154, 3-(5-[4-({(2S)-2-({[trans-4-(Aminomethyl)cyclohexyl]carbonyl}amino)-3-[4′-(3-azabicyclo[3.1.0]hex-6-ylcarbamoyl)-2′-methylbiphenyl-4-yl]propanoyl}amino)phenyl]-4H-1,2,4-triazol-3-yl}-2,2,3,3-tetrafluoropropanoic acid hydrochloride], for which the “aPTT” value with human and animal plasma came to 0.09 µmol/L. This compound also showed an IC50 at human factor XIa of 2.8 nM.

Consider `Cc1cc(C(=O)NC2CCCNC2=O)ccc1-c1ccc(C[C@H](NC(=O)[C@H]2CC[C@H](CN)CC2)C(=O)Nc2ccc(-c3nnc(C(F)(F)C(F)(F)C(=O)O)[nH]3)cc2)cc1` (stereo partly drawn) [Example 155, 3-[5-(4-{[(2S)-2-({[trans-4-(Aminomethyl)cyclohexyl]carbonyl}amino)-3-{2′-methyl-4′-[(2-oxopiperidin-3-yl)carbamoyl]biphenyl-4-yl}propanoyl]amino}phenyl)-4H-1,2,4-triazol-3-yl]-2,2,3,3-tetrafluoropropanoic acid hydrochloride], for which, in the assay with human and animal plasma, the “aPTT” value is 0.16 µmol/L. Inhibition on human factor XIa was half-maximal at 1 nM (IC50).

With `Cc1cc(C(=O)N[C@@H]2CCCNC2=O)ccc1-c1ccc(C[C@H](NC(=O)[C@H]2CC[C@H](CN)CC2)C(=O)Nc2ccc(-c3nnc(C(F)(F)C(F)(F)C(=O)O)[nH]3)cc2)cc1` [Example 166, 3-[5-(4-{[(2S)-2-({[trans-4-(Aminomethyl)cyclohexyl]carbonyl}amino)-3-(2′-methyl-4′-{[(3R)-2-oxopiperidin-3-yl]carbamoyl}biphenyl-4-yl)propanoyl]amino}phenyl)-4H-1,2,4-triazol-3-yl]-2,2,3,3-tetrafluoropropanoic acid hydrochloride], the “aPTT” value in the assay with human and animal plasma worked out at 0.09 µmol/L. On human factor XIa, this compound yielded an IC50 of 0.8 nM.

For the origin of these results see patent publication US20160272617A1, “SUBSTITUTED PHENYLALANINE DERIVATIVES” (BAYER PHARMA AKTIENGESELLSCHAFT, priority 2013, published 2016).
